Results: patent publication US10894788B2, “Inhibitors of cyclin-dependent kinases” (Kinnate Biopharma Inc., priority 2018, dated 2021)

Target: CDK12 (Homo sapiens (Human), UniProt Q9NYV4)
Test: Radiometric protein kinase assay (33PanQinase Activity Assay), Assay Condition B (thiol-free conditions)
Format: biochemical
Details: thiol-free conditions (1 mM TCEP, glutathione removed)
Experimental: Example 2—Assay Condition B (Thiol-Free Conditions)
The IC50 profile of compounds was determined using one protein kinase in a customized, thiol free assay. […] Prior to testing, the 1×10^−03 M stock solutions in column 2 of the master plates were subjected to a serial, semi-logarithmic dilution using 100% DMSO as a solvent. […] Column 1 and 7 were filled with 100% DMSO as controls. Subsequently, 2×10 microliter from each well of the serial diluted copy plates were aliquoted with a 96 channel pipettor into two identical sets of “compound dilution plates”. All plates were barcoded for automated identification and tracking purposes. […] All compounds were stored as powder until being solubilized in DMSO. Solubilized compounds were stored as 1×10^−02 M/100% DMSO stock solutions. Prior to the assay process, 90 microliters of H2O were added to each well of a set of compound dilution plates. To minimize potential precipitation, the H2O was added to each plate only a few minutes before the transfer of the compound solutions into the assay plates. Each plate was shaken thoroughly, resulting in compound dilution plates with a final of 10% DMSO. For each assay, 5 microliters of solution from each well of the compound dilution plates/10% DMSO were transferred into the assay plate. The final volume of the assay was 50 μl. All compounds were tested at 10 final assay concentrations in the range from 1×10^−05 M to 3×10^−10 M, in singlicate. The final DMSO concentration in the reaction cocktails was 1% in all cases. A radiometric protein kinase assay (33PanQinase® Activity Assay) was used for measuring the kinase activity of the protein kinase. All kinase assays were performed in 96-well FlashPlates™ from PerkinElmer (Boston, Mass., USA) in a 50 microliter reaction volume. The reaction cocktail was pipetted in four steps in the following order: 20 microliter of assay buffer (standard buffer)·5 microliter of ATP solution (in H2O)·5 microliter of test compound (in 10% DMSO)·20 microliter enzyme/substrate mix. […] For all experiments labeled as “Thiol-free”, all glutathione was exchanged from protein preparations so as to be removed from the assay and final buffer conditions contained no thiol-containing reagents. This was done so there would be no interference with the key cysteines in the proteins of interest.
For data analysis, the median value of the counts in column 1 (n=8) of each assay plate was defined as “low control”. This value reflects unspecific binding of radioactivity to the plate in the absence of a protein kinase but in the presence of the substrate. The median value of the counts in column 7 of each assay plate (n=8) was taken as the “high control”, i.e. full activity in the absence of any inhibitor. The difference between high and low control was taken as 100% activity. As part of the data evaluation the low control value from a particular plate was subtracted from the high control value as well as from all 80 “compound values” of the corresponding plate. The residual activity (in %) for each well of a particular plate was calculated by using the following formula: Res. Activity (%)=100×[(cpm of compound−low control)/(high control−low control)]
The residual activities for each concentration and the compound IC50 values were calculated using Quattro Workflow V3.1.1 (Quattro Research GmbH, Munich, Germany; www.quattro-research.com). […] The fitting method used was a least-squares fit. As a parameter for assay quality, the Z′-factor (Zhang et al., J. Biomol. Screen. 2: 67-73, 1999) for the low and high controls of each assay plate (n=8) was used. ProQinase's criterion for repetition of an assay plate is a Z′-factor below 0.4 (Iversen et al., J. Biomol. Screen. 3: 247-252, 2006).

Chain of CDK12 (Q9NYV4 whole entry): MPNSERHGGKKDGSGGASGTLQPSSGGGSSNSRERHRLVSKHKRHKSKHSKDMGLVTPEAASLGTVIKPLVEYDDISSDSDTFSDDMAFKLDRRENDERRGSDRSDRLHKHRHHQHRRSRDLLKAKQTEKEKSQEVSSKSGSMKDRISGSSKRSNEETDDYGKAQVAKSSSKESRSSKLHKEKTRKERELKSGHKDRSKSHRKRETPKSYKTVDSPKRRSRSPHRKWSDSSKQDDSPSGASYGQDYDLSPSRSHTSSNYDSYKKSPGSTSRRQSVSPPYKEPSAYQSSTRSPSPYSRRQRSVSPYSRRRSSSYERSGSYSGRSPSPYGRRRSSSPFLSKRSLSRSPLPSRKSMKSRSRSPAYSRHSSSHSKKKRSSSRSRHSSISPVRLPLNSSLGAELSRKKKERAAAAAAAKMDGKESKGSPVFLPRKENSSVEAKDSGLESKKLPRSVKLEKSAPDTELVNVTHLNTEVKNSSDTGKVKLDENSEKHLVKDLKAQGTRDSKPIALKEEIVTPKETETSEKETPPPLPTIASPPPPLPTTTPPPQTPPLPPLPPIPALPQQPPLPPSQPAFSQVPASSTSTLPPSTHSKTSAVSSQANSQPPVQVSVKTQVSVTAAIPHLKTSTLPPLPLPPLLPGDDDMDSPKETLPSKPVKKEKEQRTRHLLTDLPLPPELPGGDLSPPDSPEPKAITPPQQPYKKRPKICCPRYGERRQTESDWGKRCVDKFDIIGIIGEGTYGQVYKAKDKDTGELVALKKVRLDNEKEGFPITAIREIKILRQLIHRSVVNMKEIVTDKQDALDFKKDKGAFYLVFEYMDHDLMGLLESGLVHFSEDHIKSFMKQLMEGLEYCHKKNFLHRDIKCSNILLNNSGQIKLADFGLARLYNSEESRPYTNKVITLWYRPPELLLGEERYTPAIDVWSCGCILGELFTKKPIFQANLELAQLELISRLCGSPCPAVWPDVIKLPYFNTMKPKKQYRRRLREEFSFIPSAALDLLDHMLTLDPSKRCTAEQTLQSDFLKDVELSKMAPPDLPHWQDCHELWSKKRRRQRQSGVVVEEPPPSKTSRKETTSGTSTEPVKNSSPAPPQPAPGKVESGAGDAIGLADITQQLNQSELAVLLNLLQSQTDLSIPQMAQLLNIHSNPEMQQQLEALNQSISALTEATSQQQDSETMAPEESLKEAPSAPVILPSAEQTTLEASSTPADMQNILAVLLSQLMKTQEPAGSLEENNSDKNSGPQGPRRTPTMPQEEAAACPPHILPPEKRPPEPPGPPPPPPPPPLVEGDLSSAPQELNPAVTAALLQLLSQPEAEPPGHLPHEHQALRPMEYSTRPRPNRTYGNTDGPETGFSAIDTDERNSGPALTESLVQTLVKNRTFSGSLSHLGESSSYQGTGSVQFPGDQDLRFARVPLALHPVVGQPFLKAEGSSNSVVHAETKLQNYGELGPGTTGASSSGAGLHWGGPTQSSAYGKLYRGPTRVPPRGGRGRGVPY
Chain of CDK12 (O75909 whole entry partner): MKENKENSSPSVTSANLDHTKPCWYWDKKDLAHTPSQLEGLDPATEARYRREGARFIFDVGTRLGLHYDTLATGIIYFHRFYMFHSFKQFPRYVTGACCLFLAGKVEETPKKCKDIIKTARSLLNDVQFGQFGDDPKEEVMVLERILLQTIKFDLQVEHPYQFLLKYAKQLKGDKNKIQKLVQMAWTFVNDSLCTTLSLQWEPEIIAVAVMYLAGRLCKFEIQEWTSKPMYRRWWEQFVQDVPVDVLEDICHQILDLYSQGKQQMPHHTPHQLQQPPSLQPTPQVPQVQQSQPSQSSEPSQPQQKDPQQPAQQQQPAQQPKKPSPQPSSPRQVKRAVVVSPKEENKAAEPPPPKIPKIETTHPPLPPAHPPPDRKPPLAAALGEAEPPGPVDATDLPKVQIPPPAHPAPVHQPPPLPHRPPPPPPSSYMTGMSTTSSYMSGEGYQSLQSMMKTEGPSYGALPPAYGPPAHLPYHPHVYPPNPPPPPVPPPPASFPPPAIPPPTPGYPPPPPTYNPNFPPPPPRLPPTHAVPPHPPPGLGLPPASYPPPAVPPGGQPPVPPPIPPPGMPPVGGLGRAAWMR

| IC50 [µM] | Structure (SMILES) |
| --- | --- |
| 30 to 100 | C=CC(=O)Nc1ccc(C(=O)N2CCC[C@@H](Nc3nccc(N4CCOCC4)n3)C2)cc1 [Example 36, (R)—N-(4-(3-((4-morpholinopyrimidin-2-yl)amino)piperidine-1-carbonyl)phenyl)acrylamide] |
| 30 to 100 | C=CC(=O)Nc1ccc(C(=O)N2CCC[C@@H](Nc3nccc(-c4cnn(C)c4)n3)C2)cc1 [Example 39, (R)—N-(4-(3-((4-(1-methyl-1H-pyrazol-4-yl)pyrimidin-2-yl)amino)piperidine-1-carbonyl)phenyl)acrylamide] |
| 1 to 10 | CCC(=O)Nc1ccc(C(=O)N2CC[C@@H](Nc3nccc(-c4cn[nH]c4)n3)C2)cc1 [Example 43] |
| < 0.1 | C=CC(=O)Nc1ccc(C(=O)N2CC[C@@H](Nc3ncc(Cl)c(OC4CC4)n3)C2)cc1 [Example 56, (R)—N-(4-(3-((5-chloro-4-cyclopropoxypyrimidin-2-yl)amino)pyrrolidine-1-carbonyl)phenyl)acrylamide] |
| 0.1 to 1 | C=CC(=O)Nc1ccc(C(=O)N2CC[C@@H](Nc3ccc(Cl)cn3)C2)cc1 [Example 64, (R)—N-(4-(3-((5-chloropyridin-2-yl)amino)pyrrolidine-1-carbonyl)phenyl)acrylamide] |
| 0.1 to 1 | C=CC(=O)Nc1ccc(C(=O)N2CC[C@@H](Nc3ncc(Cl)cn3)C2)cc1-c1cnn(C)c1 [Example 69, (R)—N-(4-(3-((5-chloropyrimidin-2-yl)amino)pyrrolidine-1-carbonyl)-2-(1-methyl-1H-pyrazol-4-yl)phenyl)acrylamide] |
| 0.1 to 1 | C=CC(=O)Nc1ncc(C(=O)N2CC[C@@H](Nc3ncc(Cl)c(OC)n3)C2)s1 [Example 73, (R)—N-(5-(3-((5-chloro-4-methoxypyrimidin-2-yl)amino)pyrrolidine-1-carbonyl)thiazol-2-yl)acrylamide] |
| < 0.1 | C=CC(=O)Nc1ccc(C(=O)N2CC[C@@H](Nc3ncc(Cl)c(OC)n3)C2)cc1N1CCCCC1 [Example 74, (R)—N-(4-(3-((5-chloro-4-methoxypyrimidin-2-yl)amino)pyrrolidine-1-carbonyl)-2-(piperidin-1-yl)phenyl)acrylamide] |
| 1 to 10 | C=CC(=O)Nc1ccc(C(=O)N2CC[C@@H](Nc3ccc(C)cn3)C2)cc1 [Example 75, (R)—N-(4-(3-((5-methylpyridin-2-yl)amino)pyrrolidine-1-carbonyl)phenyl)acrylamide] |
| < 0.1 | C=CC(=O)Nc1ccc(C(=O)N2CC[C@@H](Nc3ncc(Cl)c(OC)n3)C2)cc1N1CCN(C)CC1 [Example 78, (R)—N-(4-(3-((5-chloro-4-methoxypyrimidin-2-yl)amino)pyrrolidine-1-carbonyl)-2-(4-methylpiperazin-1-yl)phenyl)acrylamide] |

Continued, compound first:

| Structure (SMILES) | IC50 [µM] |
| --- | --- |
| C=CC(=O)N1CCOc2cc(C(=O)N3CC[C@@H](Nc4ncc(Cl)cn4)C3)ccc21 [Example 34, (R)-1-(7-(3-((5-chloropyrimidin-2-yl)amino)pyrrolidine-1-carbonyl)-2H-benzo[b][1,4]oxazin-4(3H)-yl)prop-2-en-1-one] | 0.1 to 1 |
| C=CC(=O)Nc1ccc(C(=O)N2CCC[C@@H](Nc3nccc(-c4ccnn4C)n3)C2)cc1 [Example 35, (R)—N-(4-(3-((4-(1-methyl-1H-pyrazol-5-yl)pyrimidin-2-yl)amino)piperidine-1-carbonyl)phenyl)acrylamide] | 30 to 100 |
| C=CC(=O)Nc1ccc(C(=O)N2CCC[C@@H](Nc3nccc(OC)n3)C2)cc1 [Example 37, (R)—N-(4-(3-((4-methoxypyrimidin-2-yl)amino)piperidine-1-carbonyl)phenyl)acrylamide] | 1 to 10 |
| C=CC(=O)Nc1ccc(C(=O)N2CCC[C@@H](Nc3cnc(Cl)cn3)C2)cc1 [Example 38, (R)—N-(4-(3-((5-chloropyrazin-2-yl)amino)piperidine-1-carbonyl)phenyl)acrylamide] | 10 to 30 |
| C=CC(=O)Nc1ccc(C(=O)N2CCC[C@@H](Nc3nccc(OC4CCCC4)n3)C2)cc1 [Example 40, (R)—N-(4-(3-((4-(cyclopentyloxy)pyrimidin-2-yl)amino)piperidine-1-carbonyl)phenyl)acrylamide] | 10 to 30 |
| CCC(=O)Nc1ccc(C(=O)N2CCC[C@@H](Nc3nccc(-c4cn[nH]c4)n3)C2)cc1 [Example 41, (R)—N-(4-(3-((4-(1H-pyrazol-4-yl)pyrimidin-2-yl)amino)piperidine-1-carbonyl)phenyl)propionamide] | 30 to 100 |
| CCC(=O)Nc1ccc(C(=O)N2CCC[C@@H](Nc3nccc(N4CCOCC4)n3)C2)cc1 [Example 42, (R)—N-(4-(3-((4-morpholinopyrimidin-2-yl)amino)piperidine-1-carbonyl)phenyl)propionamide] | 30 to 100 |
| C=CC(=O)Nc1ccc(C(=O)N2CC[C@@H](Nc3nccc(-c4cn[nH]c4)n3)C2)cc1 [Example 44, (R)—N-(4-(3-((4-(1H-pyrazol-4-yl)pyrimidin-2-yl)amino)pyrrolidine-1-carbonyl)phenyl)acrylamide] | 0.1 to 1 |
| C=CC(=O)N1CCOc2cc(C(=O)N3CC[C@@H](Nc4ncc(Cl)cn4)C3)ccc21 [Example 51, (R)-1-(7-(3-((5-chloropyrimidin-2-yl)amino)pyrrolidine-1-carbonyl)-2H-benzo[b][1,4]oxazin-4(3H)-yl)prop-2-en-1-one] | 0.1 to 1 |
| C=CC(=O)Nc1ccc(C(=O)N2CC[C@@H](Nc3ncc(C)cn3)C2)cc1 [Example 57, (R)—N-(4-(3-((5-methylpyrimidin-2-yl)amino)pyrrolidine-1-carbonyl)phenyl)acrylamide] | 0.1 to 1 |
| C=CC(=O)Nc1ccc(C(=O)N2CC[C@@H](Nc3cnc(C(F)(F)F)cn3)C2)cc1 [Example 60, (R)—N-(4-(3-((5-(trifluoromethyl)pyrazin-2-yl)amino)pyrrolidine-1-carbonyl)phenyl)acrylamide] | 0.1 to 1 |
| C=CC(=O)Nc1ccc(C(=O)N2CC[C@@H](Nc3cnc(C)cn3)C2)cc1 [Example 61, (R)—N-(4-(3-((5-methylpyrazin-2-yl)amino)pyrrolidine-1-carbonyl)phenyl)acrylamide] | 1 to 10 |
| C=CC(=O)N1CCOc2cc(C(=O)N3CC[C@@H](Nc4ncc(Cl)c(OC)n4)C3)ccc21 [Example 63, (R)-1-(7-(3-((5-chloro-4-methoxypyrimidin-2-yl)amino)pyrrolidine-1-carbonyl)-2H-benzo[b][1,4]oxazin-4(3H)-yl)prop-2-en-1-one] | 0.1 to 1 |
| C=CC(=O)N1CCCc2cc(C(=O)N3CC[C@@H](Nc4ncc(Cl)c(OC)n4)C3)ccc21 [Example 65, (R)-1-(6-(3-((5-chloro-4-methoxypyrimidin-2-yl)amino)pyrrolidine-1-carbonyl)-3,4-dihydroquinolin-1(2H)-yl)prop-2-en-1-one] | < 0.1 |
| C=CC(=O)Nc1ccc(C(=O)N2CC[C@@H](Nc3ncc(Cl)c(OC)n3)C2)cc1N1CCOCC1 [Example 68, (R)—N-(4-(3-((5-chloro-4-methoxypyrimidin-2-yl)amino)pyrrolidine-1-carbonyl)-2-morpholinophenyl)acrylamide] | < 0.1 |
| C=CC(=O)Nc1ccc(C(=O)N2CC[C@@H](Nc3ncc(F)c(OC4CC4)n3)C2)cc1 [Example 71, (R)—N-(4-(3-((4-cyclopropoxy-5-fluoropyrimidin-2-yl)amino)pyrrolidine-1-carbonyl)phenyl)acrylamide] | 0.1 to 1 |
| C=CC(=O)Nc1ccc(C(=O)N2CC[C@@H](Nc3ncc(Br)cn3)C2)cc1C [Example 76, (R)—N-(4-(3-((5-bromopyrimidin-2-yl)amino)pyrrolidine-1-carbonyl)-2-methylphenyl)acrylamide] | < 0.1 |
| C=CC(=O)Nc1ccc(C(=O)N2CC[C@@H](Nc3ncc(C(F)(F)F)cn3)C2)cc1C [Example 79, (R)—N-(2-methyl-4-(3-((5-(trifluoromethyl)pyrimidin-2-yl)amino)pyrrolidine-1-carbonyl)phenyl)acrylamide] | < 0.1 |
